Legend:
CDK9 = biological target: T1, CDK9 (Homo sapiens, UniProt P50750); experiment: Lance Ultra KinaSelect Assay, CDK9; type: biochemical; conditions: ULight MBP substrate; cyclin partner not stated in Table 5; read-out: CDK9 LANCE assay (activity range), IC50
T1 construct: purchased Invitrogen
Procedure: (§1) This protocol describes how the Lance Ultra KinaSelect Assay was performed to determine half maximal inhibitory concentration (IC50) of compounds of general formula (I) and CDK/Cyclin complexes. The principle behind this enzymatic assay is based upon the phosphorylation of the ULight-Peptide Substrat. It is detected by using a specific EU-labeled anti-phospho peptide antibody. The binding of the Eu-labeled anti-phospho peptide antibody to the phosphorylated ULight labeled peptide gives rise to a FRET-signal. Binding of an inhibitor to the kinase prevents phosphorylation of the ULight-MBP Substrat, resulting in a loss of FRET.
The compounds of general formula (I) summarized in Table 5 were diluted from a 10 mM DMSO stock solution 1:10 in a total volume of 15 μL DMSO. This compound predilution was then serial diluted 1:3 over 8 steps in DMSO and briefly spun down. Each compound solution was now diluted 1:20 in Enzymatic Buffer (HEPES: 50 mM, pH: 7.5; MgCl2: 10 mM; EGTA: 1 mM; DTT: 2 mM; Tween-20: 0.01%), mixed thoroughly and spun down. For every sample, 2 μL of the diluted compound were mixed with 6 μL CDK/Cyclin/Substrat solution and 2 μL ATP solution in a well of a small volume 384 well plate (Corning Incorporated, Corning, N.Y., USA; order no. 3673). The CDK/Cyclin was diluted to the appropriate concentration (see Table 3) and the ATP concentration was adjusted to its […] for the CDK/Cyclin, which was 3 μM for CDK2/Cyclin A, 20 μM for CDK1/Cyclin B1, 25 μM for CDK7/Cyclin H and CDK9/Cyclin T1, 55 μM for CDK6/Cyclin D3, 90 μM for CDK4/Cyclin D1 and 125 μM for CDK9/Cyclin K. For negative controls, in each well 2 μL of DMSO solution (1% final DMSO assay concentration) was mixed with 6 μL substrate solution (50 nM ULight MBP final assay concentration) and 2 μL ATP solution (appropriate final concentration see Table 3). For positive controls, in each well 2 μL of DMSO solution (1% final DMSO assay concentration) was mixed with 6 μL CDK/Cyclin/Substrat (appropriate final concentration see Table 3) and 2 μL Tracer ATP solution (appropriate final concentration see Table 3). Positive and negative controls were calculated from at least 8 different sample wells. The 384 well plates were mixed in a Teleshaker plate mixer (Beckman Coulter, Brea, Calif., USA) at 2000 rpm for 40 sec, and incubated for 1 h at room temperature. Before reading, 10 μL the detection buffer (Lance Detection Buffer 1×; EDTA: […]; Eu-Anti-P-MBP: see Table 3) was added. The FRET signal was measured at 340 nm excitation, 665 nm and 615 nm emission (for the kinase tracer and LanthaScreen Eu-AB, respectively) with an Envision spectrophotometer (Perkin Elmer, Waltham, Mass., USA) with 50 μs delay and 300 μs integration time. IC50 values were determined from the sigmoidal dose response curves with the software Quattro Workflow (Quattro GmbH, Munich, Germany).

CDK9/Cyclin K = biological target: T2, CDK9/Cyclin K (Homo sapiens, UniProt P50750); experiment: LanthaScreen Eu Kinase Binding Assay, CDK9/Cyclin K; conditions: tracer 236, read-out: CDK9/Cyclin K (activity range), Kd
T2 construct: purchased Invitrogen
Procedure: (§2) This protocol describes how the LanthaScreen Eu Kinase Binding Assay was performed to determine dissociation constants (Kd) of compounds of general formula (I) and CDK/Cyclin complexes. The principle behind this assay is based upon the binding and displacement of an Alexa Fluor 647-labeled tracer, which binds to the active site of kinases. Binding of the tracer to the kinase is detected using a Eu-labeled antibody. Simultaneous binding of both the tracer and antibody to the kinase gives rise to a FRET-signal. Binding of an inhibitor to the kinase competes for binding with the tracer, resulting in a loss of FRET.
(§3) The compounds of general formula (I) summarized in Table 1 were diluted from a 10 mM DMSO stock solution 1:10 in a total volume of 15 μL DMSO. This compound predilution was then serial diluted 1:3 over 8 steps in DMSO and briefly spun down. Each compound solution was now diluted 1:33.33 in kinase buffer (HEPES: 20 mM, pH: 8.0; MgCl2: 10 mM; DTT: 1 mM; Brij-35: 0.01%), mixed thoroughly and spun down. For every sample, 5 μL of the diluted compound were mixed with 5 μL tracer working solution (e.g. 60 nM tracer 236 in kinase buffer for CDK2/Cyclin A) and 5 μL CDK/Cyclin/Anti-GST-AB-working solution (e.g. 15 nM CDK2/Cyclin A, 1:250 dilution of Anti-GST-AB in kinase buffer) in a well of a small volume 384 well plate (Corning Incorporated, Corning, N.Y., USA; order no. 3673). The tracer concentration was adjusted to its dissociation constant (Kd) for the CDK/Cyclin, which was 30 nM for CDK2/Cyclin A, CDK7/Cyclin H and CDK9/Cyclin T1, 20 nM for CDK8/Cyclin C, and 35 nM for CDK9/Cyclin K. For negative controls, in each well 5 μL of DMSO working solution (3% DMSO diluted in kinase buffer) was mixed with 5 μL Anti-GST-AB working solution (e.g. 1:250 dilution of Anti-GST-AB in kinase buffer for CDK2/Cyclin A) and 5 μL Tracer working solution (e.g. 60 nM Tracer 236 in kinase buffer for CDK2/Cyclin A). For positive controls, in each well 5 μL of DMSO working solution (3% DMSO diluted in kinase buffer) was mixed with 5 μL CDK/Cyclin/Anti-GST-AB-working solution: (e.g. 15 nM CDK2/Cyclin A, 1:250 dilution of Anti-GST-AB in kinase buffer) and 5 μL Tracer working solution (e.g. 60 nM Tracer 236 in kinase buffer for CDK2/Cyclin A). Positive and negative controls were calculated from at least 8 different sample wells. The 384 well plates were mixed in a Teleshaker plate mixer (Beckman Coulter, Brea, Calif., USA) at 2000 rpm for 40 sec, and incubated for 1 h at room temperature before reading. The FRET signal was measured at 340 nm excitation, 665 nm and 615 nm emission (for the kinase tracer and LanthaScreen Eu-AB, respectively) with an Envision spectrophotometer (Perkin Elmer, Waltham, Mass., USA) with 50 μs delay and 300 μs integration time. Kd values were determined from the sigmoidal dose response curves with the software Quattro Workflow (Quattro GmbH, Munich, Germany).

CDK1/CyclinB1 = biological target: T3, CDK1/CyclinB1 (Homo sapiens, UniProt P06493); experiment: Lance Ultra KinaSelect Assay, CDK1; type: biochemical; conditions: ULight MBP substrate, ATP 20 μM; read-out: CDK1 LANCE assay (activity range), IC50
T3 construct: purchased Carna
Procedure: as §1
(§4) The compounds of general formula (I) summarized in Table 5 were diluted from a 10 mM DMSO stock solution 1:10 in a total volume of 15 μL DMSO. […] Positive and negative controls were calculated from at least 8 different sample wells. […] Before reading, 10 μL the detection buffer (Lance Detection Buffer 1×; EDTA: […]; Eu-Anti-P-MBP: see Table 3) was added. The FRET signal was measured at 340 nm excitation, 665 nm and 615 nm emission (for the kinase tracer and LanthaScreen Eu-AB, respectively) with an Envision spectrophotometer (Perkin Elmer, Waltham, Mass., USA) with 50 μs delay and 300 μs integration time. IC50 values were determined from the sigmoidal dose response curves with the software Quattro Workflow (Quattro GmbH, Munich, Germany).

CDK4/CyclinD1 = biological target: T4, CDK4/CyclinD1 (Homo sapiens, UniProt P11802); experiment: Lance Ultra KinaSelect Assay, CDK4; type: biochemical; conditions: ULight MBP substrate, ATP 90 μM; read-out: CDK4 LANCE assay (activity range), IC50
T4 construct: purchased Invitrogen
Procedure: as §1, §4

CDK7/CyclinH/MAT1 = biological target: T5, CDK7/CyclinH/MAT1 (Homo sapiens, UniProt P50613); experiment: LanthaScreen Eu Kinase Binding Assay, CDK7; conditions: tracer 236, read-out: CDK7 (activity range), Kd
T5 construct: purchased Carna Biosciences
Procedure: as §2, §3

T5 sequence (P50613 whole entry): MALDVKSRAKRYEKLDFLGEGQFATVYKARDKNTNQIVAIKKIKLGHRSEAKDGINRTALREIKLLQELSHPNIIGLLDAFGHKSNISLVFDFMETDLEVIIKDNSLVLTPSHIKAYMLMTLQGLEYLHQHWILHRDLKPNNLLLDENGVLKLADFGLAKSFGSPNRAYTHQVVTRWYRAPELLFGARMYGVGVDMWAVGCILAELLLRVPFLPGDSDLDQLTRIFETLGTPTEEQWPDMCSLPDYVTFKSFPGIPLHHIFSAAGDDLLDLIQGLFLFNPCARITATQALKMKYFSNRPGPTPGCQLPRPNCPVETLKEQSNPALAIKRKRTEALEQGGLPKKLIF
T5 sequence (P51946 whole entry partner): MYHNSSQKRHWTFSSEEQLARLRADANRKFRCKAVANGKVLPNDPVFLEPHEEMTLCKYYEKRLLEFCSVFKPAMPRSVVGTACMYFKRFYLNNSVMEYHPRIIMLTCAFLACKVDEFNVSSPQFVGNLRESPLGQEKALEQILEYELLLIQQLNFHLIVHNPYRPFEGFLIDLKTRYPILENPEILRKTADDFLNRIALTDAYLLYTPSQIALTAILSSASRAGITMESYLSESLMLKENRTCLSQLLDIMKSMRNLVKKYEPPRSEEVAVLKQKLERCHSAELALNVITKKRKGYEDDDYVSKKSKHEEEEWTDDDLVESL
T5 sequence (P51948 whole entry partner): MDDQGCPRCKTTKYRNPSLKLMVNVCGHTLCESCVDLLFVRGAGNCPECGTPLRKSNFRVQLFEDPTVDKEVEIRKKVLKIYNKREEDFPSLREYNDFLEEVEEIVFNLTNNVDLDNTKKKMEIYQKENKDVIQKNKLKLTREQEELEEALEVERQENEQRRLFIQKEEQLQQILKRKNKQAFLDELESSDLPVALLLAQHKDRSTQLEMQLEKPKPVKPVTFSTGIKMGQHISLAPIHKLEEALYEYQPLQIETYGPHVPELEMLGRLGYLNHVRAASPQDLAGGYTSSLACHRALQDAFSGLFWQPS
T2 sequence (P50750 whole entry): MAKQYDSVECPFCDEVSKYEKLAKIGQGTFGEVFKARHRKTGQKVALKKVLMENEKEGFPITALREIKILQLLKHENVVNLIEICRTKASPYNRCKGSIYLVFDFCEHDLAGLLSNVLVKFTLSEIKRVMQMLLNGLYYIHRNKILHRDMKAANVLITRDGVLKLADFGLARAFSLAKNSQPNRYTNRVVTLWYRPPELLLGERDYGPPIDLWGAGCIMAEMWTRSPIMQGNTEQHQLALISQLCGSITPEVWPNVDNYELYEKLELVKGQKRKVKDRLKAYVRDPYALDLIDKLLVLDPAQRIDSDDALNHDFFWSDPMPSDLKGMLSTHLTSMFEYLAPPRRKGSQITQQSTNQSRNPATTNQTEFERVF
T2 sequence (O75909 1-357 isoform O75909-1 partner): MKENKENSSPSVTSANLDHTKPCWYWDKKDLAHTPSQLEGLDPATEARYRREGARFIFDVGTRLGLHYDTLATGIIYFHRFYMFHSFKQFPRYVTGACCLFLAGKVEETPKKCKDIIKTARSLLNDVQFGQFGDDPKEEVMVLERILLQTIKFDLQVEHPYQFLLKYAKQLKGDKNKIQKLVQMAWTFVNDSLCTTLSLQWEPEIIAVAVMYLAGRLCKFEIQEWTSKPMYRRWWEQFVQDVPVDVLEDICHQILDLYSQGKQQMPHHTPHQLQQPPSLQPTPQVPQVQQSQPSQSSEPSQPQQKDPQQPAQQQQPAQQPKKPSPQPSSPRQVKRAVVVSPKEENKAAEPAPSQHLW
T1 sequence (P50750 whole entry): as the sequence (P50750 whole entry) above
T3 sequence (P06493 whole entry): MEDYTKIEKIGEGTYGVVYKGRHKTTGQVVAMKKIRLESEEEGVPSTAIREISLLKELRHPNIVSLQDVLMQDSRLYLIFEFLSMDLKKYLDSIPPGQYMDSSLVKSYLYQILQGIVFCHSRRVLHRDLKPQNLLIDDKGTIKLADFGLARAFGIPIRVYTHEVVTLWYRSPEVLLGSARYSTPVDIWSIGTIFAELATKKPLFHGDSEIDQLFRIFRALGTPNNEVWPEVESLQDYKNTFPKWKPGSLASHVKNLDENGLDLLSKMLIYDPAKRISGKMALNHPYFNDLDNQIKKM
T3 sequence (P14635 whole entry partner): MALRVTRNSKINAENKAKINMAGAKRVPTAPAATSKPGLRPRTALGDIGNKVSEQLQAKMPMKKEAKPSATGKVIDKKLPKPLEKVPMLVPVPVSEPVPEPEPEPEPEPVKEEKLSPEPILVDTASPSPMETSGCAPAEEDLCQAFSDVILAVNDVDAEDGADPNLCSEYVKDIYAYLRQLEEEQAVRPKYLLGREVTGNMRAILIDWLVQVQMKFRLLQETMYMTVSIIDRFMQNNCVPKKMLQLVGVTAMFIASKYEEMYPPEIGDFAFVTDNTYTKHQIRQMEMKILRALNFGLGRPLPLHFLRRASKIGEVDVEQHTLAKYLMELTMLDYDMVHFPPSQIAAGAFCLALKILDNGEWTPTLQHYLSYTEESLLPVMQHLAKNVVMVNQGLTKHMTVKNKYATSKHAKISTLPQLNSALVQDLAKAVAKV
T4 sequence (P11802 whole entry): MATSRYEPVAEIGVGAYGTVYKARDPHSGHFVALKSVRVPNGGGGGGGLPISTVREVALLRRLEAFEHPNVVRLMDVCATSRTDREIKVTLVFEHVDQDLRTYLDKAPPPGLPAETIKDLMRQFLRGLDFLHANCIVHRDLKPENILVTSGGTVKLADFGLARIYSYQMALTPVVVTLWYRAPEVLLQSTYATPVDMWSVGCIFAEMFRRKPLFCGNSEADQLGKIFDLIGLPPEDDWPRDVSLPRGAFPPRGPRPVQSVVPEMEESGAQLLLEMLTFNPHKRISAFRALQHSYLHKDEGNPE
T4 sequence (P24385 whole entry partner): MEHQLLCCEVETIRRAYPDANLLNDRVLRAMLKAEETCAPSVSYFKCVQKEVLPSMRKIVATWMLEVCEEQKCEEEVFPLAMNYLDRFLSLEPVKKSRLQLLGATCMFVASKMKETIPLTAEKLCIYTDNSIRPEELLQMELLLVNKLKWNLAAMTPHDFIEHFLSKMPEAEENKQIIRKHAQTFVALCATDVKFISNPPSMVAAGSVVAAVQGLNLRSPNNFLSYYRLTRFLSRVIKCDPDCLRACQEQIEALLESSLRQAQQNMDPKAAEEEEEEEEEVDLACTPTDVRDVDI

COc1ccccc1-c1ccnc(Nc2ccccc2)c1 [Compound B1, 4-(2-Methoxyphenyl)-N-phenylpyridin-2-amine]
IC50 (CDK9): 1000 to 10000 nM

COc1ccccc1-c1ccnc(Nc2cccc([N+](=O)[O-])c2)c1 [Compound C1, 4-(2-Methoxyphenyl)-N-(3-nitrophenyl)pyridin-2-amine]
Kd (CDK9/Cyclin K): 100 to 1000 nM | IC50 (CDK9): 1000 to 10000 nM

COc1ccccc1-c1ccnc(Nc2cccc(S(N)(=O)=O)c2)c1 [Compound D1, 3-[(4-(2-Methoxyphenyl)pyridin-2-yl)amino]benzenesulfonamide]
IC50 (CDK1/CyclinB1): 1000 to 10000 nM | IC50 (CDK4/CyclinD1): > 10000 nM | Kd (CDK7/CyclinH/MAT1): > 10000 nM | Kd (CDK9/Cyclin K): < 100 nM | IC50 (CDK9): < 100 nM

COc1ccccc1-c1ccnc(Nc2ccc(S(N)(=O)=O)cc2)c1 [Compound E1, 4-[(4-(2-Methoxyphenyl)pyridin-2-yl)amino]benzenesulfonamide]
Kd (CDK7/CyclinH/MAT1): > 10000 nM | Kd (CDK9/Cyclin K): < 100 nM | IC50 (CDK9): 100 to 1000 nM

COc1ccccc1-c1ccnc(Nc2cccc(S(C)(=O)=O)c2)c1 [Compound F1, 4-(2-Methoxyphenyl)-N-(3-(methylsulfonyl)phenyl)pyridin-2-amine]
Kd (CDK9/Cyclin K): < 100 nM | IC50 (CDK9): < 100 nM

COc1cc(F)ccc1-c1ccnc(Nc2cccc(CS(N)(=O)=O)c2)c1 [Compound G1, [3-((4-(4-Fluoro-2-methoxyphenyl)pyridin-2-yl)amino)phenyl]-methanesulfonamide]
IC50 (CDK1/CyclinB1): 1000 to 10000 nM | IC50 (CDK4/CyclinD1): 1000 to 10000 nM | Kd (CDK7/CyclinH/MAT1): > 10000 nM | Kd (CDK9/Cyclin K): < 100 nM | IC50 (CDK9): < 100 nM

COc1cc(F)ccc1-c1ccnc(Nc2cccc(CS(=O)(=O)N(C)C)c2)c1 [Compound G3, 1-[3-((4-(4-Fluoro-2-methoxyphenyl)pyridin-2-yl)amino)phenyl]-N,N-dimethylmethanesulfonamide]
Kd (CDK7/CyclinH/MAT1): > 10000 nM | IC50 (CDK9): < 100 nM

COc1cc(F)ccc1-c1ccnc(Nc2cccc(NS(C)(=O)=O)c2)c1 [Compound J1, N-[3-((4-(4-Fluoro-2-methoxyphenyl)pyridin-2-yl)amino)phenyl]-methanesulfonamide]
Kd (CDK7/CyclinH/MAT1): 1000 to 10000 nM | IC50 (CDK9): < 100 nM

COc1cc(F)ccc1-c1ccnc(Nc2cccc(NC(C)=O)c2)c1 [Compound J2, N-[3-((4-(4-Fluoro-2-methoxyphenyl)pyridin-2-yl)amino)phenyl]-acetamide]
Kd (CDK7/CyclinH/MAT1): > 10000 nM | IC50 (CDK9): < 100 nM

CCCNS(=O)(=O)Cc1cccc(Nc2cc(-c3ccc(F)cc3OC)ccn2)c1 [Compound K1, 1-[3-((4-(4-Fluoro-2-methoxyphenyl)pyridin-2-yl)amino)phenyl]-N-propylmethanesulfonamide]
Kd (CDK7/CyclinH/MAT1): > 10000 nM | IC50 (CDK9): 100 to 1000 nM

From patent US9242937B2, “Pharmaceutically active disubstituted pyridine derivatives” (Bayer Intellectual Property GmbH, priority 2011, dated 2016)
